Publication PMC8657773, “Development of a PROTAC-Based Targeting Strategy Provides a Mechanistically Unique Mode of Anti-Cytomegalovirus Activity” (International Journal of Molecular Sciences, 2021)
Values joined by “and” are separate entries in the source; they are usually repeats but may differ in a detail not shown here. Equal entries are not always repeated. Where two headings read alike, the source gives them in different places.

Columns and labels:
[1] = test system: SARS-CoV-2 d6-YFP; parameters: method as in PMID 34578109; details: human Caco-2 cells, previously demonstrated; ref [41]; cited from earlier work
[2] = test system: HCMV AD169-GFP; assay: microbe, parasite or virus in culture; assay type: cell-based, Human cytomegalovirus
[3] = in vitro; assay type: cell-based
Experimental: (§1) Drug induced cytotoxicity in HFF and other cell types was measured as a reduction of cell viability determined by Neutral Red uptake assay (NRA), as described previously. Briefly, compound treated cells were incubated with a final concentration of 40 μg/mL Neutral Red (Sigma Aldrich, St. Louis, MO, USA) for 1 to 4 h, depending on the cell type. The amount of incorporated Neutral Red was released from the cells by incubation with destaining solution (50% ethanol, 49% H2O, 1% acetic acid), and subsequently quantitated in a microplate reader by fluorescence measurement using 560/630 nm for excitation/emission, respectively. For determination of lactate dehydrogenase release into the cell culture supernatant, the CytoTox 96® Non-Radioactive Cytotoxicity Assay (Promega, Madison, WI, USA) was used according to the manufacturer’s protocol. Values were normalized to maximal release of LDH by measuring lysates of solvent-treated control cells. Cell viability was defined as the absence of cytotoxicity.

[4] = test system: HFFs; assay: in vitro; assay type: cell-based; details: human
Experimental: as §1

[5] = test system: MCMV Smith-GFP; assay: microbe, parasite or virus in culture; assay type: cell-based, murine CMV; details: for EC50: Human betaherpesvirus 5, in Mus musculus, 120 h, MCMV Smith-GFP, 5 d p.i.
[6] = test system: VZV Oka-GFP; assay type: cell-based, varicella zoster virus; details: HFF, 1× TCID25^7d, 6 d p.i.
[7] = test system: HAdV-2; assay: HAdV-2 plaque formation assay in HFFs; assay type: cell-based, human adenovirus type 2; details: for EC50: HAdV-2, HFF, 10 d p.i.; for impact on HAdV-2 plaque formation: HFFs, at concentrations (0.03 µM) that produced anti-HCMV activity
[8] = test system: SARS-CoV-2 d6-YFP; assay: microbe, parasite or virus in culture; assay type: cell-based
[9] = molecular target: T1, CDK2 (Homo sapiens, UniProt P24941); assay: Western blot of CDK levels in HCMV-infected HFFs; assay type: cell-based; details: HCMV AD169-infected HFFs (MOI 2), THAL-SNS032 treatment, 1 and 3 d p.i.
T1 construct: endogenous in cells; host or cells: primary human foreskin fibroblasts (HFFs), mock- or HCMV AD169-infected
Experimental: (§2) Western blot analyses of infected and mock-infected HFFs were performed as previously described. Antibodies specific for CDK9 (sc-484, Santa Cruz Biotechnology, Dallas, TX, USA), mAb-CDK1 (sc-54, Santa Cruz Biotechnology), pAb CDK2 (Sc-163, Santa Cruz Biotechnology), pAb-CDK7 (sc-723, Santa Cruz Biotechnology), and mAb β-actin (A5441, Sigma Aldrich, St. Louis, MO, USA) were used with an appropriate secondary antibody to detect the respective proteins.

[10] = molecular target: T2, CDK1 (Homo sapiens, UniProt P06493); assay: Western blot of CDK levels in HCMV-infected HFFs; assay type: cell-based; details: HCMV AD169-infected HFFs (MOI 2), THAL-SNS032 treatment, 1 and 3 d p.i.
T2 construct: endogenous in cells; host or cells: primary human foreskin fibroblasts (HFFs), mock- or HCMV AD169-infected
T2 sequence (P06493 whole entry): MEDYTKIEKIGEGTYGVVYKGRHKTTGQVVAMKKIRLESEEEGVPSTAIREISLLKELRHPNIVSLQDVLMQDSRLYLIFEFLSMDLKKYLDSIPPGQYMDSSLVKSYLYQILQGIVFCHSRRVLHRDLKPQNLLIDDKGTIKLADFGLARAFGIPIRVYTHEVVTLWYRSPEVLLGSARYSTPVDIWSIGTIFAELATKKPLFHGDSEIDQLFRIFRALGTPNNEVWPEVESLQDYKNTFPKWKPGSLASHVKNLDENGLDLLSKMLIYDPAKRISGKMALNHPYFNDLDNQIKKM
Experimental: as §2

[11] = molecular target: T3, CDK7 (Homo sapiens, UniProt P50613); assay: Western blot of CDK levels in HCMV-infected HFFs; assay type: cell-based; details: HCMV AD169-infected HFFs (MOI 2), THAL-SNS032 treatment, 1 and 3 d p.i.
T3 construct: endogenous in cells; host or cells: primary human foreskin fibroblasts (HFFs), mock- or HCMV AD169-infected
T3 sequence (P50613 whole entry): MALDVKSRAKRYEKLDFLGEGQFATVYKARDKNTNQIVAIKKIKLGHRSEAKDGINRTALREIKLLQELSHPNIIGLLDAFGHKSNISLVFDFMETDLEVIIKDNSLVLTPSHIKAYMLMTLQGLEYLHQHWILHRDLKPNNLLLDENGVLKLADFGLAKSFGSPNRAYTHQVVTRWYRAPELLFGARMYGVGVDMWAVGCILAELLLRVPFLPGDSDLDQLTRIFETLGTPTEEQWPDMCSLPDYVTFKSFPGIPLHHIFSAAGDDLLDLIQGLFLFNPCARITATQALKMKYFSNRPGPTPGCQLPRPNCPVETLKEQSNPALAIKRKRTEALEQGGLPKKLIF
Experimental: as §2

[12] = molecular target: T4, CDK9 (Homo sapiens, UniProt P50750); assay: Western blot of CDK levels in HCMV-infected HFFs; assay type: cell-based; details: HCMV AD169-infected HFFs (MOI 2)
T4 construct: endogenous in cells; host or cells: primary human foreskin fibroblasts (HFFs), mock- or HCMV AD169-infected
T4 sequence (P50750 whole entry): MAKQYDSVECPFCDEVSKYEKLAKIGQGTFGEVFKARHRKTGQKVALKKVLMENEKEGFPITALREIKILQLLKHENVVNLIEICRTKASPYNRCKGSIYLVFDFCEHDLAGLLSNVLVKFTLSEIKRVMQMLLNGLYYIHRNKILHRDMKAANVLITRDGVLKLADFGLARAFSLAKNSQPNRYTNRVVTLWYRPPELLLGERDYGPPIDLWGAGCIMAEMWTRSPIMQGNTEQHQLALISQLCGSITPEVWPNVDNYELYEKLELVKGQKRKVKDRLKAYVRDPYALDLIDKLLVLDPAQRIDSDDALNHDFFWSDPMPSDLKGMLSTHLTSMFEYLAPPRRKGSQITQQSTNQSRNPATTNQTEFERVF
Experimental: as §2

[13] = test system: HCMV Merlin; assay: HCMV-specific qPCR replication assay in TEV-1 trophoblast cells; assay type: cell-based, Human cytomegalovirus
[14] = test system: MEFs; assay: in vitro; assay type: cell-based; details: mouse, 5 d
Experimental: as §1

[15] = Cell viability of Vero cells; assay type: cell-based; details: African green monkey
Experimental: as §1

[16] = molecular target: T1, CDK2; assay: Western blot of CDK degradation in HFFs; assay type: cell-based; details: uninfected HFFs
Experimental: as §2

[17] = molecular target: T2, CDK1; assay: Western blot of CDK degradation in HFFs; assay type: cell-based; details: uninfected HFFs, up to 100 nM, up to 24 h
Experimental: as §2

[18] = molecular target: T3, CDK7; assay: Western blot of CDK degradation in HFFs; assay type: cell-based; details: uninfected HFFs
Experimental: as §2

[19] = molecular target: T4, CDK9; assay: Western blot of CDK degradation in HFFs; assay type: cell-based; details: uninfected HFFs
Experimental: as §2

[20] = Neutral Red uptake assay, uninfected MRC-5 cells; assay type: cell-based; details: human
Experimental: as §1

[21] = test system: HCMV Merlin; assay: HCMV-specific qPCR replication assay in MRC-5 cells; assay type: cell-based, Human cytomegalovirus
[22] = test system: TEV-1 trophoblast cells; assay: Transwell migration assay, HCMV AD169-infected TEV-1 trophoblasts; assay type: cell-based, human; details: HCMV AD169-infected TEV-1 (MOI 2)
[23] = test system: ZIKV PRVABC59; assay: ZIKV qPCR replication assay in Vero cells; assay type: cell-based, Zika virus; details: for EC50: ZIKV PRVABC59, Vero
[24] = test system: HCMV AD169-GFP; parameters: method as in PMID 30452929, PMID 25624324; details: anti-HCMV, preceding determination; ref [22],[26]; cited from earlier work
[25] = MEF, 1× TCID25^5d, Table 1 summary
[26] = Human betaherpesvirus 5, AD169, 168 h
[27] = Human betaherpesvirus 5, AD169, HFF-1, 168 h
[28] = Severe acute respiratory syndrome coronavirus 2, Caco-2
[29] = Severe acute respiratory syndrome coronavirus 2, Caco-2, 30 h
[30] = washout after 24 h treatment, initial levels reconstituted after 24 h

## O=C1Cc2c([nH]c3ccc([N+](=O)[O-])cc23)-c2ccccc2N1 [R25/alsterpaullone, alsterpaullone]
[1]
  impairment of SARS-CoV-2 replication: effective

## Cc1c(Br)c(Br)c2c3c1nc(N1CCNCC1)n3CCC2 [SEL120]
[2]; Human betaherpesvirus 5, AD169
  EC50: 120 ± 70 nM

## CC(C)(C)c1cnc(CSc2cnc(NC(=O)C3CCNCC3)s2)o1 [SNS032]
[3]; human
  CC50 at 48 h: 59500 ± 7000 nM
[3]; human, CC50
  CC50: 240 ± 22 nM
[3]; mouse, CC50
  CC50: 1030 ± 50 nM
  CC50 at 5 d: ~1000 nM
[4]
  CC50: 220 ± 40 nM
[1]
  impairment of SARS-CoV-2 replication: effective
[5]; [25]
  EC50: 290 ± 50 nM
[5]; MCMV/MEF, Figure 6 experiment
  SI: 3.5
[5]; MCMV/MEF, Table 1 summary
  SI: 3.5
[6]
  EC50: inactive
[2]; HCMV AD169-GFP/HFF, Table 1 summary
  SI: 2.0
[2]; HCMV AD169-GFP/HFF, representative experiment (Figure 3)
  SI: 2.3
[2]; [26]
  EC50: 105 ± 4 nM
[2]; [27]
  EC50: 110 ± 20 nM
[7]
  EC50: inactive
  impact on HAdV-2 plaque formation: none of the drugs produced a measurable impact
[8]
  EC50: 180 ± 30 nM
[8]; Caco-2, conventional treatment
  SI: 340
[8]; Caco-2, only pretreatment
  SI: 397
[8]; [28]
  EC50: 150 ± 30 nM
[8]; [29]
  EC50: 175 ± 250 nM

## CC(C)(C)c1cnc(CSc2cnc(NC(=O)C3CCN(CC(=O)NCCOCCOCCOCCNc4cccc5c4C(=O)N(C4CCC(=O)NC4=O)C5=O)CC3)s2)o1 (stereo not shown) [THAL-SNS032]
[9]
  CDK2 protein level: markedly reduced at 1 d p.i. and completely lost at 3 d p.i.
[10]
  CDK1 protein level: markedly reduced at 1 d p.i. and completely lost at 3 d p.i.
[11]
  CDK7 protein level: markedly reduced at 1 d p.i. and completely lost at 3 d p.i.
[12]; 1 nM, 1 and 3 d p.i.
  CDK9 protein level: partial reduction
[12]; 10 nM, 3 h p.i.
  CDK9 protein level: sufficient to deplete CDK9 levels
[13]
  SI: 53.7 and 54
[13]; Human betaherpesvirus 5, 168 h, HCMV Merlin, TEV-1, 7 d p.i.
  EC50: 75 nM
[3]; human
  CC50: 4030 nM
  CC50 at 48 h: 64900 ± 16200 nM
[3]; human, CC50
  CC50: 125 ± 14 nM
[3]; mouse, CC50
  CC50: 1000 ± 220 nM
  CC50 at 5 d: ~1000 nM
[14]
  CC50: 960 ± 120 nM
[5]
  EC50 Ratio SNS032/ THAL-SNS032: 1.4
  SI: 4.7
[5]; [25]
  EC50: 210 ± 90 nM
[5]; MEFs, Figure 6 experiment
  EC50: 220 ± 80 nM
[15]
  CC50 at 4 d: 43900 nM
[6]
  EC50: inactive
[16]; 100 nM, 6 to 24 h
  CDK2 protein level: decline in protein levels
[16]; [30]
  time reduced CDK2 level was maintained after washout: 6 h
[17]
  CDK1 protein level: apparently not affected
[18]; 100 nM, 6 to 24 h
  CDK7 protein level (larger variety): decline in protein levels
[18]; [30]
  time reduced CDK7 level was maintained after washout: 6 h
[19]; 10 nM, beginning with 6 h
  CDK9 protein level: markedly reduced
[19]; 100 nM, after 40 min
  CDK9 protein level: decreased protein levels
[19]; [30]
  time reduced CDK9 level was maintained after washout: 6 h
[2]
  EC50 Ratio SNS032/ THAL-SNS032: 3.7
  SI: 5.7
[2]; [26]
  EC50: 25 ± 1 nM
[2]; [27]
  EC50: 30 ± 10 nM
[2]; Human betaherpesvirus 5, AD169, read-out: EC50 values (range) for HCMV
  EC50: 30 to 3070 nM
[7]
  EC50: inactive
  impact on HAdV-2 plaque formation: none of the drugs produced a measurable impact
[20]
  CC50: 4650 nM
[21]; Human betaherpesvirus 5, MRC5, 96 h, HCMV Merlin, MRC-5, MOI 0.02, 4 d p.i., read-out: EC50
  EC50: 370 nM
[21]; Human betaherpesvirus 5, MRC5, 96 h, HCMV Merlin, MRC-5, MOI 0.2, 4 d p.i., read-out: EC50
  EC50: 1770 nM
[21]; Human betaherpesvirus 5, MRC5, 168 h, HCMV Merlin, MRC-5, MOI 0.002, 7 d p.i., read-out: EC50
  EC50: 570 nM
[21]; Human betaherpesvirus 5, MRC5, 168 h, HCMV Merlin, MRC-5, MOI 0.02, 7 d p.i., read-out: EC50
  EC50: 400 nM
[21]; Human betaherpesvirus 5, MRC5, 168 h, HCMV Merlin, MRC-5, MOI 0.2, 7 d p.i., read-out: EC50
  EC50: 3070 nM
[21]; Human betaherpesvirus 5, MRC5, 240 h, HCMV Merlin, MRC-5, MOI 0.002, 10 d p.i., read-out: EC50
  EC50: 940 nM
[21]; Human betaherpesvirus 5, MRC5, MRC-5, lower MOIs of 0.02 and 0.002, 4 to 10 days, read-out: EC50 values (range)
  EC50: 340 to 940 nM
[22]; 0.5 µM, 21 h migration
  trophoblast migration: almost completely abolished trophoblast migration
[23]; Vero cells, concentrations up to 10 µM
  effect on ZIKV replication: did not affect virus replication
[23]; MOI 0.02, 1 d p.i.
  EC50: inactive
[23]; MOI 0.02, 2 d p.i.
  EC50: inactive
[23]; MOI 0.02, 3 d p.i.
  EC50: inactive
[23]; MOI 0.02, 4 d p.i.
  EC50: inactive
[8]
  EC50: 150 ± 20 nM
  EC50 Ratio SNS032/ THAL-SNS032: 1.6 and 1.7
  SI: 592
[8]; [28]
  EC50: 146 ± 22 nM
[8]; [29]
  EC50: 110 ± 20 nM

## Nc1nc(O)c2ncn(COC(CO)CO)c2n1 [ganciclovir]
[22]; 10 µM, vs infected untreated cells (p = 0.999)
  resolving HCMV inhibition of trophoblast migration: no effect

## CC(C)c1cnn2c(NCc3ccccc3-n3cccn3)nc(OC3CCCNC3)nc12 (stereo not shown) [LDC4297]
[24]
  EC50: 30 nM
[1]
  impairment of SARS-CoV-2 replication: inactive
